In patent publication US20080004271A1, “Inhibitors of TNFalpha, PDE4 and B-RAF, compositions thereof and methods of use therewith” (priority 2006, published 2008):

Experiments:
[1] = system: pMEK1/2 in A375 cells; assay: A375 pMEK1/2 Meso Scale Assay; format: cell-based; conditions: Homo sapiens, A-375, 2 h; A375 pMEK1/2, about two hours incubation
Method: On the afternoon of Day 1, cells are plated in a 96-well flat bottom cell culture plate at about 50,000 cells/well in a volume of 100 μl. On the morning of Day 2, serial dilutions of test compound(s) are added to the plate. The plate is incubated for about two hours at 37° C., […]. The plate is blocked about five minutes before the compound incubation step is completed by adding 150 μl/well of MSD (Meso Scale Discovery) blocking solution-A (prepared with 20 ml 1× Tris wash buffer (25 ml of 10× Tris buffer+225 ml deionized water) and 600 mg MSD blocker A) and incubating with vigorous shaking at room temperature for one hour. The plate is washed 4× with 1× Tris wash buffer.
Cells are harvested and lysates prepared by removing medium, washing 1× with ice-cold PBS (calcium and magnesium free), adding 50 μl/well Complete Tris buffer and incubating with shaking at 4° C. for one hour. Lysate samples (25 μl) are added to an MSD Multi-Spot plate and incubated with vigorous shaking at room temperature for two hours. The plate is washed 1× with Tris wash buffer.
25 μl/well of […] detection antibody (Anti-pMEK1/2 antibody; SULFO-TAG labeled, light sensitive) in 3 ml of cold antibody dilution buffer (1 ml blocking solution-A, 1.82 ml 1× Tris wash buffer, 150 μl 2% MSD blocker D-M and 30 μl 10% MSD blocker D-R) is added and the plate is incubated with vigorous shaking at room temperature in the dark for one hour. The plate is washed 1× with Tris wash buffer.
150 μl/well of 1× MSD Read buffer T (with surfactant) is added to the plate and the plate is read using a MSD Sector instrument.

[2] = target: T1, V600E mutant B-RAF (Homo sapiens, UniProt P15056, V600E); assay: V600E Mutant B-RAF 33P Assay; format: biochemical
T1 construct: purchased Upstate
Method: Substrate (HIS-MEK1 K97M) is prepared by Celgene Corp. as described above.
Test compound is diluted in 100% DMSO (600 μM). […] Substrate mixture is prepared as 7.5 μM HIS-MEK1 K97M in assay buffer. ATP mixture is prepared as 300 μM ATP, 75 mM MgCl2, 0.05 μCi/μl ^33P ATP in assay buffer.
In a 96 well assay plate (Falcon Polylpropylene well U-bottom), the following are added to each well: 2.5 μl of test compound solution (serial dilutions), 20 μl of substrate mixture and 17.5 μl of enzyme mixture. The plate is incubated for at least 15 minutes. 10 μl of ATP mixture is added and the plate is incubated at room temperature for about 60 minutes. 80 μl of 12.5% TCA is added to each well, and the plate is incubated for at least 20 minutes. The contents of the plate is transferred to a glass fiber filter plate (Millipore) using a Packard Harvester (washing 10× with 1×PBS). 50 μl of Scintillation-20 fluid is added to each well. The plate is read using a Packard TopCount.

[3] = system: A375 cells; assay: Alamar Blue Viability Assay; format: cell-based; conditions: Homo sapiens, A-375, 72 h, 3 days
Method: A375 cells (ATCC # CRL-1619; Passage 4˜15; doubling time is roughly 18 hours) are used. Culture medium is DMEM (high glucose, with L-glutamine)+10% FBS+Pen/Strep. Cells are passed every three days at 1:20.
200 μl of medium only is added into all wells along the edges of a 96-well flat bottom plate and 180 μl of cell suspension (containing 1,000 cells) per well is added into the plate with a Low Evaporation Lid (Costar Cat # 3595). The cells are cultured overnight. Compounds and controls are diluted according to standard compound dilution protocol described below. From 30 mM stock solution, 10 mM, 3 mM, 1 mM, and 0.3 mM solutions in 100% DMSO are prepared using the following serial dilution protocol:
The 30, 10, 3, 1 and 0.3 mM solutions are diluted 1:50 (DMSO:medium) by adding 4 μl of each to 196 μl of culture medium. This yields 600 μM, 200 μM, 60 μM, 20 μM, and 6 μM secondary stock solutions. 4 μl of DMSO are added to 196 μl medium for the DMSO control as well. 20 μl of compound dilutions, including the DMSO control locations (Row G, Columns 2-10 are DMSO control wells), are added in triplicate to the cells in the 96-well plate using a repeat pipettor (see plate layout below). This yields final concentrations of 60 μM, 20 μM, 6 μM, 2 μM, and 0.6 μM containing 0.2% DMSO in each well. The plate is gently tapped to evenly distribute compound within the well. The plate is incubated at 5% CO2 at 37° C. for 3 days.
20 μl of Alamar Blue (Biosource #DAL-1100) is added to each well. The plate is incubated in 5% CO2 incubator for 4 hours. Fluorescence is measured with excitation wavelength at 530 nm and emission wavelength at 590 nm using a Victor 2 multilabel plate reader (Perkin Elmer). Data is saved with plate format as a Text file and entered into ActivityBase (Cell-based SAR; Prolif-Alamar; MTT 5 plates unfixed fit) to calculate the percent of DMSO values for each compound set of triplicate wells and IC50 curves are plotted.

T1 sequence (P15056 whole entry V600E): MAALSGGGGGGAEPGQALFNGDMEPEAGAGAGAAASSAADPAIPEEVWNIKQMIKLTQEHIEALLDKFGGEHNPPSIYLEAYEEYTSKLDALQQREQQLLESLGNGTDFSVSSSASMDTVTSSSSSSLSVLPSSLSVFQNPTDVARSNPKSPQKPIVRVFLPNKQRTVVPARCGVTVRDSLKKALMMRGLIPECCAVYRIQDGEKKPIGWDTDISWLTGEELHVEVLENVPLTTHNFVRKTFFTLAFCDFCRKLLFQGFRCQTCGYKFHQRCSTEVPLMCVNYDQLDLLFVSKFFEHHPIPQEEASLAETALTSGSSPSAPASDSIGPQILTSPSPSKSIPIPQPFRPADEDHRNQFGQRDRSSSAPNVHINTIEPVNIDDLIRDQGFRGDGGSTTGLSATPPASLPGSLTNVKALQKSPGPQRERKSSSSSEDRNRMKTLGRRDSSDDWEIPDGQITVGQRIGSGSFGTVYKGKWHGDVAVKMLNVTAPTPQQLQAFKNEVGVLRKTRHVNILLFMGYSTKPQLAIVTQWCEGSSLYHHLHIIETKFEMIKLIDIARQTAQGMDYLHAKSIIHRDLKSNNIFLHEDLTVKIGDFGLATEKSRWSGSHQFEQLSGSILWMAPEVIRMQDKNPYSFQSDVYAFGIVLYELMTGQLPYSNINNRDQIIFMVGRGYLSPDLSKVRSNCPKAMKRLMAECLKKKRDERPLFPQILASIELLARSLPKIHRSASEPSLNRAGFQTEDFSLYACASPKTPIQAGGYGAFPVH

Structure (SMILES)	IC50 [1] [µM]	IC50 [2] [µM]	IC50 [3] [µM]
CC[C@@H](CO)Nc1nc(-c2cncc(OC)c2)c2c(N)c(C(N)=O)sc2n1 [Example 175]	0.1 to 10	0.1 to 10	10 to 20
NC(=O)c1sc2nc(N)nc(-c3cccc(O)c3)c2c1N [Example 185]	0.1 to 10	0.1 to 10	0.1 to 10
Cc1ccc(-c2nc(NC3CC3)nc3sc(C(N)=O)c(N)c23)cc1C [Example 188]	0.1 to 10	0.1 to 10	10 to 20
NC(=O)c1sc2nc(C3CC3)nc(-c3ccc(Cl)c(Cl)c3)c2c1N [Example 189]	20 to 30	0.1 to 10	0.1 to 10
CC[C@@H](CO)Nc1nc(-c2cc(O)cc(Cl)c2)c2c(N)c(C(N)=O)sc2n1 [Example 191]	0.1 to 10	0.1 to 10	0.1 to 10
CC[C@H](CO)Nc1nc(-c2cc(O)cc(Cl)c2)c2c(N)c(C(N)=O)sc2n1 [Example 192]	0.1 to 10	0.1 to 10	0.1 to 10
NC(=O)CCNc1nc(-c2ccc(Cl)c(Cl)c2)c2c(N)c(C(N)=O)sc2n1 [Example 202]	20 to 30	0.1 to 10	10 to 20
NC(=O)c1sc2nc(NC(CO)CO)nc(-c3ccc(Cl)c(Cl)c3)c2c1N [Example 204]	10 to 20	0.1 to 10	20 to 30
C[C@H](O)CNc1nc(-c2ccc(Cl)c(Cl)c2)c2c(N)c(C(N)=O)sc2n1 [Example 205]	20 to 30	0.1 to 10	20 to 30
C[C@@H](O)CNc1nc(-c2ccc(Cl)c(Cl)c2)c2c(N)c(C(N)=O)sc2n1 [Example 206]	20 to 30	0.1 to 10	20 to 30
CC[C@@H](CO)Nc1nc(-c2ccc(Cl)c(Cl)c2)c2c(N)c(C(N)=O)sc2n1 [Example 207]	10 to 20	0.1 to 10	10 to 20
CC[C@H](CO)Nc1nc(-c2ccc(Cl)c(Cl)c2)c2c(N)c(C(N)=O)sc2n1 [Example 208]	0.1 to 10	0.1 to 10	10 to 20
NC(=O)c1sc2nc(NC3(CO)CC3)nc(-c3ccc(Cl)c(Cl)c3)c2c1N [Example 210]	0.1 to 10	0.1 to 10	0.1 to 10
C[C@@H](O)[C@@H](C)Oc1nc(-c2ccc(Cl)c(Cl)c2)c2c(N)c(C(N)=O)sc2n1 [Example 214]	0.1 to 10	0.1 to 10	0.1 to 10
CCCNc1nc(-c2ccc(Cl)c(Cl)c2)c2c(N)c(C(N)=O)sc2n1 [Example 217]	10 to 20	0.1 to 10	0.1 to 10
CNCCNc1nc(-c2ccc(Cl)c(Cl)c2)c2c(N)c(C(N)=O)sc2n1 [Example 218]	30 to 60	0.1 to 10	10 to 20
COCCNc1nc(-c2ccc(Cl)c(Cl)c2)c2c(N)c(C(N)=O)sc2n1 [Example 219]	> 60	0.1 to 10	> 60
NC(=O)c1sc2nc(NCC(O)CO)nc(-c3ccc(Cl)c(Cl)c3)c2c1N (stereo not drawn) [Example 220]	10 to 20	0.1 to 10	20 to 30
COCCCNc1nc(-c2ccc(Cl)c(Cl)c2)c2c(N)c(C(N)=O)sc2n1 [Example 222]	20 to 30	0.1 to 10	20 to 30

Structure (SMILES)	IC50 [1] [µM]	IC50 [2] [µM]	IC50 [3] [µM]
NC(=O)c1sc2nc(N[C@H]3CCNC3)nc(-c3ccc(Cl)c(Cl)c3)c2c1N [Example 224]	0.1 to 10	0.1 to 10	10 to 20
NC(=O)c1sc2nc(N[C@@H]3CCNC3)nc(-c3ccc(Cl)c(Cl)c3)c2c1N [Example 225]	0.1 to 10	0.1 to 10	0.1 to 10
NC(=O)c1sc2nc(NC3CCNCC3)nc(-c3ccc(Cl)c(Cl)c3)c2c1N [Example 226]	0.1 to 10	0.1 to 10	0.1 to 10
NC(=O)c1sc2nc(N[C@H]3CCOC3)nc(-c3ccc(Cl)c(Cl)c3)c2c1N [Example 228]	0.1 to 10	0.1 to 10	10 to 20
COc1ccc(F)c(-c2nc(NC3CC3)nc3sc(C(N)=O)c(N)c23)c1 [Example 230]	10 to 20	0.1 to 10	20 to 30
NC(=O)c1sc2nc(NC3CC3)nc(-c3cc(O)ccc3F)c2c1N [Example 231]	0.1 to 10	0.1 to 10	0.1 to 10
NC(=O)c1sc2nc(NC3CC3)nc(-c3ccc(C(F)(F)F)c(O)c3)c2c1N [Example 234]	0.1 to 10	0.1 to 10	30 to 60
Cc1c(O)cccc1-c1nc(NC(C)(C)CO)nc2sc(C(N)=O)c(N)c12 [Example 239]	0.1 to 10	0.1 to 10	0.1 to 10
C[C@@H](CO)Nc1nc(-c2cccc(O)c2F)c2c(N)c(C(N)=O)sc2n1 [Example 240]	0.1 to 10	0.1 to 10	20 to 30
C[C@H](CO)Nc1nc(-c2cccc(O)c2F)c2c(N)c(C(N)=O)sc2n1 [Example 241]	0.1 to 10	0.1 to 10	10 to 20
CC[C@@H](CO)Nc1nc(-c2cccc(O)c2F)c2c(N)c(C(N)=O)sc2n1 [Example 242]	0.1 to 10	0.1 to 10	10 to 20
CC[C@H](CO)Nc1nc(-c2cccc(O)c2F)c2c(N)c(C(N)=O)sc2n1 [Example 243]	0.1 to 10	0.1 to 10	0.1 to 10
NC(=O)c1sc2nc(NC3CC3)nc(-c3cccc(NCCc4ccccc4)c3)c2c1N [Example 247]	0.1 to 10	0.1 to 10	0.1 to 10
NC(=O)c1sc2nc(NC3CC3)nc(-c3cccc(NC(=O)Nc4ccc(Cl)c(C(F)(F)F)c4)c3)c2c1N [Example 249]	0.1 to 10	0.1 to 10	0.1 to 10
NC(=O)c1sc2nc(NC3CC3)nc(-c3cccc(NC(=O)Nc4ccc(F)cc4)c3)c2c1N [Example 252]	0.1 to 10	0.1 to 10	0.1 to 10
CC(C)(CN)CNc1nc(-c2ccc(Cl)c(Cl)c2)c2c(N)c(C(N)=O)sc2n1 [Example 253]	0.1 to 10	0.1 to 10	0.1 to 10
CC(C)(CN)Nc1nc(-c2ccc(Cl)c(Cl)c2)c2c(N)c(C(N)=O)sc2n1 [Example 256]	0.1 to 10	0.1 to 10	0.1 to 10
CC[C@H](CO)Nc1nc(-c2cccc(NC(=O)Nc3ccc(C(F)(F)F)cc3)c2)c2c(N)c(C(N)=O)sc2n1 [Example 258]	0.1 to 10	0.1 to 10	0.1 to 10
CC[C@@H](CO)Nc1nc(-c2cccc(NC(=O)Nc3ccc(C(F)(F)F)cc3)c2)c2c(N)c(C(N)=O)sc2n1 [Example 259]	0.1 to 10	0.1 to 10	0.1 to 10
